Measurements: the NIST ThermoML archive (doi:10.1021/je100228t)

Conditions: for surface tension liquid-gas: Maximal bubble pressure; for mass density: 101.33 kPa, Liquid

CCn1cc[n+](C)c1.N#C[B-](C#N)(C#N)C#N [1-ethyl-3-methylimidazolium tetracyanoborate]
Conditions | mass density [kg/m3] | surface tension liquid-gas [mN/m]
283.15 K | 1048.37 | 49.4
288.15 K | 1044.37 | 48.9
293.15 K | 1040.38 | 48.2
298.15 K | 1036.41 | 47.8
303.15 K | 1032.46 | 47.6
308.15 K | 1028.55 | 47.1
313.15 K | 1024.66 | 46.8
318.15 K | 1020.78 | 46.4
323.15 K | 1016.95 | 46.2
328.15 K | 1013.11 | 45.5
333.15 K | 1009.32 | 45
338.15 K | 1005.54 | 44.8
